{"source": "paper PMC10046369", "about": "“Low-Affinity/High-Selectivity Dopamine Transport Inhibition Sufficient to Rescue Cognitive Functions in the Aging Rat” (Biomolecules, 2023)", "assay_in_all_cases": "biochemical", "set-up_in_all_cases": "KINOMEscan competition binding panel, per cent of control", "conditions_in_all_cases": "read-out: %Ctrl @ 2800nM", "key": {"[1]": {"target": "T1, ABL1(F317L)-nonphosphorylated (Homo sapiens, UniProt P00519, F317L)", "T1 construct": "nonphosphorylated", "how_it_was_run": "(§1)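 Values are expressed as percent of control, calculated as ((test − positive control)/(negative control − positive control)) × 100, so lower numbers mean stronger hits. Binding was measured by KINOMEscan competition assay in a 450-kinase human panel including disease mutants, using the contractor's validated protocol.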"}, "[2]": {"target": "T2, ABL1(F317L)-phosphorylated (Homo sapiens, UniProt P00519, F317L)", "T2 construct": "phosphorylated", "how_it_was_run": "as §1"}, "[3]": {"target": "T3, ABL1(T315I)-nonphosphorylated (Homo sapiens, UniProt P00519, T315I)", "T3 construct": "nonphosphorylated", "how_it_was_run": "as §1"}, "ABL2": {"target": "ABL2 (Homo sapiens, UniProt P42684)", "how_it_was_run": "as §1"}, "CAMK1D": {"target": "CAMK1D (Homo sapiens, UniProt Q8IU85)", "sequence (Q8IU85 whole entry)": "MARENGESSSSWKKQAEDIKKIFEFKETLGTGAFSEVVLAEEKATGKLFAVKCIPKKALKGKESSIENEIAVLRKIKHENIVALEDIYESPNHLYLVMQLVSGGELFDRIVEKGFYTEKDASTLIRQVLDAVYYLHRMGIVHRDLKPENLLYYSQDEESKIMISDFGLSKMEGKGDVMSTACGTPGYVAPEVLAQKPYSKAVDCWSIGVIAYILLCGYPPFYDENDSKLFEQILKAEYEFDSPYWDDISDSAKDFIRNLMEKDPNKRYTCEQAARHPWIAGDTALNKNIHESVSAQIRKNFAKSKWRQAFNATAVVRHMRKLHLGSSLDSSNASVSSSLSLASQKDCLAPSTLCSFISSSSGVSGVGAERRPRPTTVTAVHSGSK", "how_it_was_run": "as §1"}, "CAMKK1": {"target": "CAMKK1 (Homo sapiens, UniProt Q8N5S9)", "how_it_was_run": "as §1"}, "CAMKK2": {"target": "CAMKK2 (Homo sapiens, UniProt Q96RR4)", "how_it_was_run": "as §1"}, "CLK2": {"target": "CLK2 (Homo sapiens, UniProt P49760)", "how_it_was_run": "as §1"}, "CSF1R-autoinhibited": {"target": "CSF1R-autoinhibited (Homo sapiens, UniProt P07333)", "sequence (P07333 whole entry)": "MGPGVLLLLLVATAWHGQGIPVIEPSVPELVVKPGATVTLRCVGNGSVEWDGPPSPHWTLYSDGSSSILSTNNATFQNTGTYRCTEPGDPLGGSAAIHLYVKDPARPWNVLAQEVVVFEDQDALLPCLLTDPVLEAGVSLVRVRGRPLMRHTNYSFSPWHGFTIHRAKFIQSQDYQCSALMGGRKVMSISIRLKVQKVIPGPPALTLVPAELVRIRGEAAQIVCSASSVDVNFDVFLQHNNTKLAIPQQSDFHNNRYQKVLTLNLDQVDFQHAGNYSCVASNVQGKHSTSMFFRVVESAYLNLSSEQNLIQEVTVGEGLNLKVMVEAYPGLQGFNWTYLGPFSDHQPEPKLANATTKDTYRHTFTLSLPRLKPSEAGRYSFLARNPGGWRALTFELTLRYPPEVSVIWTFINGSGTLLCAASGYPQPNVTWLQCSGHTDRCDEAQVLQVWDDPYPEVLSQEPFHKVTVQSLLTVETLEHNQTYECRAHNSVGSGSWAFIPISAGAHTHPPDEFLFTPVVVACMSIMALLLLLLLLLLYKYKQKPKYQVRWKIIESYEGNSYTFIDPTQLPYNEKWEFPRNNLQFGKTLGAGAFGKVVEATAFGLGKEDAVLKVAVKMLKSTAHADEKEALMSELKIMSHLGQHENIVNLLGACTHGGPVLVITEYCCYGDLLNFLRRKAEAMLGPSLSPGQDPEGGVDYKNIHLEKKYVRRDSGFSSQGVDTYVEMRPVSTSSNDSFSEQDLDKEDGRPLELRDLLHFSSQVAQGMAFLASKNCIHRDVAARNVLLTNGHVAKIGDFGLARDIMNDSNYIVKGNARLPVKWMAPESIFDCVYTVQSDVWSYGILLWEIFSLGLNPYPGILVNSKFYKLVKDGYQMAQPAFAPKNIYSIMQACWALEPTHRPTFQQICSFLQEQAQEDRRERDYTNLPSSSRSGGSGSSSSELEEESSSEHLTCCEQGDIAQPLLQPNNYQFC", "how_it_was_run": "as §1"}, "CSNK1A1": {"target": "CSNK1A1 (Homo sapiens, UniProt P48729)", "sequence (P48729 whole entry)": "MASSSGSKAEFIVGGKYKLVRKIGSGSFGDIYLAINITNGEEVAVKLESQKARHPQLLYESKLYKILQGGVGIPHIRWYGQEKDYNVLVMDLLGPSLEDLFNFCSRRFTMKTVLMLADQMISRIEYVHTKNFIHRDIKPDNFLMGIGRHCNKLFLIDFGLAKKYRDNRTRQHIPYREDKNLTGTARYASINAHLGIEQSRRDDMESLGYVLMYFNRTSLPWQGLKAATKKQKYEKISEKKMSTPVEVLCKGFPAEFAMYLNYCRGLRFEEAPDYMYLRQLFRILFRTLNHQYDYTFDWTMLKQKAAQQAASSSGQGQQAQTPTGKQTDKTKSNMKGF", "how_it_was_run": "as §1"}, "EGFR(L747-T751del,Sins)": {"target": "EGFR(L747-T751del,Sins) (Homo sapiens, UniProt P00533, DEL747-750/T751S)", "sequence (P00533 with tags, fused parts or gaps DEL747-750/T751S)": "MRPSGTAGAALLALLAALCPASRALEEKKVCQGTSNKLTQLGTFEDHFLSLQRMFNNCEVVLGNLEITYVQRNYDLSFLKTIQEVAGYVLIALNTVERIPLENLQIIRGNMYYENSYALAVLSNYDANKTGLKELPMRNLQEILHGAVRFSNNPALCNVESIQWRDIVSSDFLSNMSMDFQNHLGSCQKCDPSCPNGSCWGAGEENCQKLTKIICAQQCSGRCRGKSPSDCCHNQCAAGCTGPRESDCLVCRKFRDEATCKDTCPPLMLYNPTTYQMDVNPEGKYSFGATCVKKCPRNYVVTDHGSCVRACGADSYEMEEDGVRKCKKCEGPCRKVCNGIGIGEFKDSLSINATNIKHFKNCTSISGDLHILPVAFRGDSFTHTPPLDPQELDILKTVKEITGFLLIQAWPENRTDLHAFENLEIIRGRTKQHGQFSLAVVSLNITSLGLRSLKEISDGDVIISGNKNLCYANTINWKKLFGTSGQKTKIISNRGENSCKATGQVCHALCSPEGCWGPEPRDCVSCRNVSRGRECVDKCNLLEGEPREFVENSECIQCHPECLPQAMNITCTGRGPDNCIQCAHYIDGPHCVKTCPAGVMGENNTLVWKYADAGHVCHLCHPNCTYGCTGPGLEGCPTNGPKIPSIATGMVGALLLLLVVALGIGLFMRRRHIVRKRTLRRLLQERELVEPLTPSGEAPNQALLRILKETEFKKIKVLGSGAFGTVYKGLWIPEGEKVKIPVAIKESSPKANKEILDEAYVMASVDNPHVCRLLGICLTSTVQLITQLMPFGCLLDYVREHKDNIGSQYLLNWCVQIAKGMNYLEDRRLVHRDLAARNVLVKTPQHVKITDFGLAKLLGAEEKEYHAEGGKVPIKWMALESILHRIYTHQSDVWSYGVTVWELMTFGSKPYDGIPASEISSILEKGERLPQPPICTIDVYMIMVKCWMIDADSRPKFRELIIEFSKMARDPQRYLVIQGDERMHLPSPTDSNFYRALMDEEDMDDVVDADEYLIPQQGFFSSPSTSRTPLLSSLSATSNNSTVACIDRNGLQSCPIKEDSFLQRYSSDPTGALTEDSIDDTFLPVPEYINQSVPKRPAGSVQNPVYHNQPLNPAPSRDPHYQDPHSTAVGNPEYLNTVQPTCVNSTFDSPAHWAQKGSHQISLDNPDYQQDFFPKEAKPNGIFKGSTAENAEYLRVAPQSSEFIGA", "how_it_was_run": "as §1"}, "EGFR(L858R)": {"target": "EGFR(L858R) (Homo sapiens, UniProt P00533, L858R)", "how_it_was_run": "as §1"}, "FGFR1": {"target": "FGFR1 (Homo sapiens, UniProt P11362)", "sequence (P11362 whole entry)": "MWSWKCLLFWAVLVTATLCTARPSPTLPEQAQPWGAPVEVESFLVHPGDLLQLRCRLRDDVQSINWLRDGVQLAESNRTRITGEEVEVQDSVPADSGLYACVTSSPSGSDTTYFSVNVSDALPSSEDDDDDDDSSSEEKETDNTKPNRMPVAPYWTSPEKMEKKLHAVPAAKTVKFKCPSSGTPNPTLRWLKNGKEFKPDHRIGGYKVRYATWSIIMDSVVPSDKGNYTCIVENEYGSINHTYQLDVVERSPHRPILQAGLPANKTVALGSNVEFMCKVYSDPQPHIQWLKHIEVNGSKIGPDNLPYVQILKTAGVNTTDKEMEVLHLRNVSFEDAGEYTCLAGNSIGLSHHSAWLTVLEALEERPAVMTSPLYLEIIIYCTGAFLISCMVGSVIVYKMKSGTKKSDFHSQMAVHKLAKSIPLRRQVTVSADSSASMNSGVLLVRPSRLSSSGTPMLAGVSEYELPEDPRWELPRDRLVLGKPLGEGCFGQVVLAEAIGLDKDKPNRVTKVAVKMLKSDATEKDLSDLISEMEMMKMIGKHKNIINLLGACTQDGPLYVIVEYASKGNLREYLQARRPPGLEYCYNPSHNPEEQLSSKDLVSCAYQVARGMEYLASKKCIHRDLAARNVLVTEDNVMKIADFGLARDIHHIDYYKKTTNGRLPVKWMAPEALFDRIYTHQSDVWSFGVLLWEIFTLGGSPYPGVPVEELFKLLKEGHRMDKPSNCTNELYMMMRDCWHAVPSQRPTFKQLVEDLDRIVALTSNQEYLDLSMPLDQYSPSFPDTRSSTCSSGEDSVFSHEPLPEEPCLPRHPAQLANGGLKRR", "how_it_was_run": "as §1"}, "FLT3(ITD,D835V)": {"target": "FLT3(ITD,D835V) (Homo sapiens, UniProt P36888, D835V/ITD)", "how_it_was_run": "as §1"}, "FYN": {"target": "FYN (Homo sapiens, UniProt P06241)", "how_it_was_run": "as §1"}, "HIPK4": {"target": "HIPK4 (Homo sapiens, UniProt Q8NE63)", "how_it_was_run": "as §1"}, "JNK1": {"target": "T4, JNK1 (Homo sapiens, UniProt P45983)", "T4 construct": "gene MAPK8", "how_it_was_run": "as §1"}, "MARK1": {"target": "MARK1 (Homo sapiens, UniProt Q9P0L2)", "how_it_was_run": "as §1"}, "NEK4": {"target": "NEK4 (Homo sapiens, UniProt P51957)", "how_it_was_run": "as §1"}, "NEK5": {"target": "NEK5 (Homo sapiens, UniProt Q6P3R8)", "sequence (Q6P3R8 whole entry)": "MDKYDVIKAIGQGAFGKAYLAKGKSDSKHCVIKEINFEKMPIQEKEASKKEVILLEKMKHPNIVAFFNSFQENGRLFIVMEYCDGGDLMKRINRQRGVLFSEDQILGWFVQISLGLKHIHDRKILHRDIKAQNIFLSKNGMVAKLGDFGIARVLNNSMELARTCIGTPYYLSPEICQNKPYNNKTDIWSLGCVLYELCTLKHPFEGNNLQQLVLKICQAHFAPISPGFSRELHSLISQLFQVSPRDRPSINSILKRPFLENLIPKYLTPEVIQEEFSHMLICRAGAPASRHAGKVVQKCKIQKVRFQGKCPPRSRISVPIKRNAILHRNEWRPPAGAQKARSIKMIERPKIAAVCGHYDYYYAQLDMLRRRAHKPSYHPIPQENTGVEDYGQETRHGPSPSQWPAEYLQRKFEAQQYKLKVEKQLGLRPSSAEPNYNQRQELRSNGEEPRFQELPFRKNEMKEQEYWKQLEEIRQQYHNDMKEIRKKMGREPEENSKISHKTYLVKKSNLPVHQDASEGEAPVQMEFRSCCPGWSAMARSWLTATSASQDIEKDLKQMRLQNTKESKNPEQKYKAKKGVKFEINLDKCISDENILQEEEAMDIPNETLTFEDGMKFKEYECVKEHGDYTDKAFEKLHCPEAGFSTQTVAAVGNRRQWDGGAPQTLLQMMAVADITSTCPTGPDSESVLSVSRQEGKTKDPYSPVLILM", "how_it_was_run": "as §1"}, "PHKG1": {"target": "PHKG1 (Homo sapiens, UniProt Q16816)", "sequence (Q16816 whole entry)": "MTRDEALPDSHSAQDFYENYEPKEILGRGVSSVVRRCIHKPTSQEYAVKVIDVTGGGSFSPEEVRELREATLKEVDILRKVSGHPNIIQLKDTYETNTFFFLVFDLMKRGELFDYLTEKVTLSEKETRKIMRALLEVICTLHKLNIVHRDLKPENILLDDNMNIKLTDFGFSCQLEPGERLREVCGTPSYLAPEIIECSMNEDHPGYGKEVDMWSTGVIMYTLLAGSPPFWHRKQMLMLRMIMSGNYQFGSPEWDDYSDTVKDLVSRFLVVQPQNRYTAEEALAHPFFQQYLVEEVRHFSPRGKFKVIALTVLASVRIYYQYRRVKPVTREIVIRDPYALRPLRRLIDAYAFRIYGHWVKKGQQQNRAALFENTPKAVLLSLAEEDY", "how_it_was_run": "as §1"}, "PIK3CA(H1047L)": {"target": "PIK3CA(H1047L) (Homo sapiens, UniProt P42336, H1047L)", "how_it_was_run": "as §1"}, "ROS1": {"target": "ROS1 (Homo sapiens, UniProt P08922)", "how_it_was_run": "as §1"}, "SNARK": {"target": "T5, SNARK (Homo sapiens, UniProt Q9H093)", "T5 construct": "gene NUAK2", "how_it_was_run": "as §1"}, "SRPK2": {"target": "SRPK2 (Homo sapiens, UniProt P78362)", "how_it_was_run": "as §1"}, "p38-gamma": {"target": "T6, p38-gamma (Homo sapiens, UniProt P53778)", "T6 construct": "gene MAPK12", "how_it_was_run": "as §1"}}}
{"smiles": "[O-][S@@+](Cc1cncs1)C(c1ccccc1)c1ccccc1", "note": "[S-CE-123, (S)-5-((Benzhydrylsulfinyl)Methyl)Thiazole]", "values": [{"measurement": "remaining binding at 2.8 µM", "setting": "[1]", "result": 100, "unit": "%"}, {"measurement": "remaining binding at 2.8 µM", "setting": "[2]", "result": 100, "unit": "%"}, {"measurement": "remaining binding at 2.8 µM", "setting": "[3]", "result": 100, "unit": "%"}, {"measurement": "remaining binding at 2.8 µM", "setting": "ABL2", "result": 99, "unit": "%"}, {"measurement": "remaining binding at 2.8 µM", "setting": "CAMK1D", "result": 96, "unit": "%"}, {"measurement": "remaining binding at 2.8 µM", "setting": "CAMKK1", "result": 95, "unit": "%"}, {"measurement": "remaining binding at 2.8 µM", "setting": "CAMKK2", "result": 94, "unit": "%"}, {"measurement": "remaining binding at 2.8 µM", "setting": "CLK2", "result": 93, "unit": "%"}, {"measurement": "remaining binding at 2.8 µM", "setting": "CSF1R-autoinhibited", "result": 100, "unit": "%"}, {"measurement": "remaining binding at 2.8 µM", "setting": "CSNK1A1", "result": 74, "unit": "%"}, {"measurement": "remaining binding at 2.8 µM", "setting": "EGFR(L747-T751del,Sins)", "result": 57, "unit": "%"}, {"measurement": "remaining binding at 2.8 µM", "setting": "EGFR(L858R)", "result": 92, "unit": "%"}, {"measurement": "remaining binding at 2.8 µM", "setting": "FGFR1", "result": 100, "unit": "%"}, {"measurement": "remaining binding at 2.8 µM", "setting": "FLT3(ITD,D835V)", "result": 100, "unit": "%"}, {"measurement": "remaining binding at 2.8 µM", "setting": "FYN", "result": 93, "unit": "%"}, {"measurement": "remaining binding at 2.8 µM", "setting": "HIPK4", "result": 100, "unit": "%"}, {"measurement": "remaining binding at 2.8 µM", "setting": "JNK1", "result": 67, "unit": "%"}, {"measurement": "remaining binding at 2.8 µM", "setting": "MARK1", "result": 93, "unit": "%"}, {"measurement": "remaining binding at 2.8 µM", "setting": "NEK4", "result": 83, "unit": "%"}, {"measurement": "remaining binding at 2.8 µM", "setting": "NEK5", "result": 90, "unit": "%"}, {"measurement": "remaining binding at 2.8 µM", "setting": "PHKG1", "result": 100, "unit": "%"}, {"measurement": "remaining binding at 2.8 µM", "setting": "PIK3CA(H1047L)", "result": 100, "unit": "%"}, {"measurement": "remaining binding at 2.8 µM", "setting": "ROS1", "result": 91, "unit": "%"}, {"measurement": "remaining binding at 2.8 µM", "setting": "SNARK", "result": 100, "unit": "%"}, {"measurement": "remaining binding at 2.8 µM", "setting": "SRPK2", "result": 76, "unit": "%"}, {"measurement": "remaining binding at 2.8 µM", "setting": "p38-gamma", "result": 100, "unit": "%"}]}
